From patent US12336981B2, “Compounds and compositions for the inhibition of NAMPT” (Valo Health, Inc., priority 2010, dated 2025)
Read-outs that look alike come from different tables or passages of the source.

Columns and labels:
NAMPT = target: T1, NAMPT (Homo sapiens, UniProt P43490); experiment: Biochemical inhibition assay: NAMPT enzymatic reaction, NMN quantified by mass spectrometry; conditions: read-out: Biochem IC50
T1 construct: His tag; host or cells: E. coli
Outline: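 Inhibition of E. coli-expressed His-tagged human NAMPT, measured as NMN formation by mass spectrometry after a 30 min room-temperature reaction containing 1 μM NAM, 100 μM PRPP and 2.5 mM ATP.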

A2780 cells = experiment: In-vitro cell proliferation assay (SRB), A2780 cells; format: cell-based; conditions: Homo sapiens, A2780, 72 h, A2780 cells, 72 hours, read-out: A2780 IC50
Outline: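 Read-out is SRB absorbance at 570 nm on TCA-fixed cells after 72 hours of compound treatment at 37° C. in 5% CO2. Background from a media-only plate is subtracted, and % inhibition is interpolated between two tested concentrations.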

T1 sequence (P43490 whole entry): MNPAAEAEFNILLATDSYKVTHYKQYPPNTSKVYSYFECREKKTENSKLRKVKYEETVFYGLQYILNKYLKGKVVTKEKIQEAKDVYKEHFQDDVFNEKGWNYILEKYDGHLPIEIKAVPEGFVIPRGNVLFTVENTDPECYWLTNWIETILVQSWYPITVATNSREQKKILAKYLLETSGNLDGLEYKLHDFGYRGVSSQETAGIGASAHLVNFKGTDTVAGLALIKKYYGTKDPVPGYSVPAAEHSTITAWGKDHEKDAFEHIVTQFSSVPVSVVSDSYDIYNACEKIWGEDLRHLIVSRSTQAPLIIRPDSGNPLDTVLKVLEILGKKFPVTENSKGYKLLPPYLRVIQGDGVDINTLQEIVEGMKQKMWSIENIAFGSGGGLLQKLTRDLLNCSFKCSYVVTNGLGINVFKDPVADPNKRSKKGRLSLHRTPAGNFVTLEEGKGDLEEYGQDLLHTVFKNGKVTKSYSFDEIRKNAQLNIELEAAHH

Compound | IC50 (NAMPT; NAMPT enzymatic reaction) | IC50 (A2780 cells; SRB assay) | IC50 (A2780 cells; SRB) | IC50 (NAMPT; NAMPT enzymatic assay)
O=C(NCc1ccc(S(=O)(=O)c2ccccc2)cc1)c1noc(-c2cccnc2)n1 [N-{[4-(benzenesulfonyl)phenyl]methyl}-5-(pyridin-3-yl)-1,2,4-oxadiazole-3-carboxamide] | 312 nM | > 30000 nM | – | –
CCCOc1ccc(S(=O)(=O)c2ccc(CNC(=O)c3cnc4nccn4c3)cc2)cc1F | 2.7 nM | – | 3.3 nM | –
O=C(NCc1ccc(S(=O)(=O)c2cccc3c2OCC3)cc1)c1cc2ccncc2o1 [N-{[4-(2,3-dihydro-1-benzofuran-7-sulfonyl)phenyl]methyl}furo[2,3-c]pyridine-2-carboxamide] | – | – | 7.1 nM | 6 nM
COc1ccc(S(=O)(=O)c2ccc(CNC(=O)c3cnc4nccn4c3)cc2)cc1Cl | 1.8 nM | – | 1.8 nM | –
O=C(NCc1ccc(S(=O)(=O)c2cccc(C(=O)N3CCOCC3)c2)cc1)c1cnc2[nH]ncc2c1 | – | – | 100 to 1000 nM | 124 nM
O=C(NCc1ccc(S(=O)(=O)c2ccc(OC(F)(F)F)c(F)c2)cc1)c1cc2ccncc2s1 | – | – | 11.5 nM | 11.5 nM
O=C(NCc1ccc(S(=O)(=O)c2cnc3n2CCCCC3)cc1)c1cc2ccncc2s1 [N-[(4-{5H,6H,7H,8H,9H-imidazo[1,2-a]azepine-3-sulfonyl}phenyl)methyl]thieno[2,3-c]pyridine-2-carboxamide] | – | – | 0.8 nM | 3 nM
O=C(NCc1ccc(S(=O)(=O)c2cc(F)cc(OCC(F)(F)F)c2)cc1)c1cnc2nccn2c1 | – | – | 1.5 nM | 1.9 nM
O=C(NCc1ccc(S(=O)(=O)c2cncc(N3CCCC3)c2)cc1)c1ccc2ncsc2c1 [N-({4-[5-(pyrrolidin-1-yl)pyridine-3-sulfonyl]phenyl}methyl)-1,3-benzothiazole-6-carboxamide] | – | – | 100 to 1000 nM | 9.2 nM
CN(C)C(=O)c1ccccc1S(=O)(=O)c1ccc(CNC(=O)c2cc3ccncc3s2)cc1 | – | – | 100 to 1000 nM | 100 to 1000 nM
O=C(NCc1ccc(S(=O)(=O)c2ccc(-c3ccccc3)cc2)cc1)c1cc2cc(O)ccc2[nH]1 | 100 to 1000 nM | – | 1000 to 10000 nM | –
CC(C)Oc1cc(F)ccc1S(=O)(=O)c1ccc(CNC(=O)c2cnc3nccn3c2)cc1 [N-[(4-{[4-fluoro-2-(propan-2-yloxy)benzene]sulfonyl}phenyl)methyl]imidazo[1,2-a]pyrimidine-6-carboxamide] | – | – | 15 nM | 3.5 nM
CC(C)c1cccc(S(=O)(=O)c2ccc(CNC(=O)c3cc4ccncc4o3)cc2)c1 | – | – | 7 nM | 4.5 nM
COc1cccc(OC(C)C)c1S(=O)(=O)c1ccc(CNC(=O)c2cc3cnccc3[nH]2)cc1 [N-[(4-{[2-methoxy-6-(propan-2-yloxy)benzene]sulfonyl}phenyl)methyl]-1H-pyrrolo[3,2-c]pyridine-2-carboxamide] | 36 nM | 22 nM | – | –
CCOc1ccc(S(=O)(=O)c2ccc(CNC(=O)c3ccc4nccn4c3)cc2)cc1 | 4.5 nM | – | 2.9 nM | –
COc1cc(F)ccc1NS(=O)(=O)c1ccc(CNC(=O)c2cc3cnccc3[nH]2)cc1 [N-({4-[(4-fluoro-2-methoxyphenyl)sulfamoyl]phenyl}methyl)-1H-pyrrolo[3,2-c]pyridine-2-carboxamide] | 3140 nM | > 30000 nM | – | –
COc1ccccc1NS(=O)(=O)c1ccc(CNC(=O)c2cc3cnccc3[nH]2)cc1 [N-({4-[(2-methoxyphenyl)sulfamoyl]phenyl}methyl)-1H-pyrrolo[3,2-c]pyridine-2-carboxamide] | 89 nM | 2150 nM | – | –
O=C(NCc1ccc(S(=O)(=O)c2cnn(-c3cccc(Cl)c3)c2)cc1)c1cc2ccncc2o1 [N-({4-[1-(3-chlorophenyl)-1H-pyrazole-4-sulfonyl]phenyl}methyl)furo[2,3-c]pyridine-2-carboxamide] | – | – | 14 nM | 11.6 nM
O=C(NCc1ccc(S(=O)(=O)N2CC3CCC(C2)O3)cc1)c1ccc2nccn2c1 [N-[(4-{8-oxa-3-azabicyclo[3.2.1]octane-3-sulfonyl}phenyl)methyl]imidazo[1,2-a]pyridine-6-carboxamide] | 4 nM | 3 nM | – | –
O=C(NCc1ccc(S(=O)(=O)c2cccc(N3CCCC3)c2)cc1)c1cnc2[nH]ncc2c1 | – | – | 12.8 nM | 17.1 nM
COc1ccc(C)cc1S(=O)(=O)c1ccc(CNC(=O)c2ccc3nccn3c2)cc1 [N-({4-[(2-methoxy-5-methylbenzene)sulfonyl]phenyl}methyl)imidazo[1,2-a]pyridine-6-carboxamide] | 43.1 nM | – | 11.7 nM | –
COc1ccc(C(C)C)cc1S(=O)(=O)c1ccc(CNC(=O)c2cnc3[nH]ncc3c2)cc1 [N-[(4-{[2-methoxy-5-(propan-2-yl)benzene]sulfonyl}phenyl)methyl]-1H-pyrazolo[3,4-b]pyridine-5-carboxamide] | – | – | 29.4 nM | 89.2 nM

Compound | IC50 (NAMPT; NAMPT enzymatic reaction) | IC50 (A2780 cells; SRB assay) | IC50 (A2780 cells; SRB) | IC50 (NAMPT; NAMPT enzymatic assay)
N#Cc1ccccc1S(=O)(=O)c1ccc(CNC(=O)c2cnc3[nH]ncc3c2)cc1 [N-({4-[(2-cyanobenzene)sulfonyl]phenyl}methyl)-1H-pyrazolo[3,4-b]pyridine-5-carboxamide] | 131 nM | – | 100 to 1000 nM | –
COc1ccc(S(=O)(=O)c2ccc(CNC(=O)c3cc4cnccc4[nH]3)cc2)c(OC)c1 [N-({4-[(2,4-dimethoxybenzene)sulfonyl]phenyl}methyl)-1H-pyrrolo[3,2-c]pyridine-2-carboxamide] | – | – | 7 nM | 27 nM
CN(C)c1ncc(S(=O)(=O)c2ccc(CNC(=O)c3cc4ccncc4s3)cc2)cn1 [N-({4-[2-(dimethylamino)pyrimidine-5-sulfonyl]phenyl}methyl)thieno[2,3-c]pyridine-2-carboxamide] | – | – | 1.7 nM | 8 nM
O=C(NCc1ccc(S(=O)(=O)c2cc(O)ccc2OC(F)(F)F)cc1)c1cnc2[nH]ncc2c1 | – | – | 67.9 nM | 21.9 nM
CCOc1cccc(F)c1S(=O)(=O)c1ccc(CNC(=O)c2cc3ccncc3o2)cc1 [N-({4-[(2-ethoxy-6-fluorobenzene)sulfonyl]phenyl}methyl)furo[2,3-c]pyridine-2-carboxamide] | 17 nM | – | 28.3 nM | –
COc1ccc(F)c(S(=O)(=O)c2ccc(CNC(=O)c3cc4ccncc4o3)cc2)c1 | 26.8 nM | – | 63.7 nM | –
COc1cc(F)cc(S(=O)(=O)c2ccc(CNC(=O)c3cc4ccncc4o3)cc2)c1 [N-({4-[(3-fluoro-5-methoxybenzene)sulfonyl]phenyl}methyl)furo[2,3-c]pyridine-2-carboxamide] | 17.4 nM | – | 3.3 nM | –
Cc1ccc(Cl)c(S(=O)(=O)c2ccc(CNC(=O)c3cc4cnccc4[nH]3)cc2)c1 | 18.8 nM | – | 9.1 nM | –
CCCCc1ccc(S(=O)(=O)c2ccc(CNC(=O)c3cnc4[nH]ncc4c3)cc2)cc1 [N-({4-[(4-butylbenzene)sulfonyl]phenyl}methyl)-1H-pyrazolo[3,4-b]pyridine-5-carboxamide] | 71.2 nM | – | 68.4 nM | –
O=C(NCc1ccc(S(=O)(=O)c2ccccc2Oc2ccccc2)cc1)c1cnc2nccn2c1 | 8.5 nM | – | 100 to 1000 nM | –
COc1ccc(C(C)(C)C)cc1S(=O)(=O)c1ccc(CNC(=O)c2cc3cnccc3[nH]2)cc1 [N-({4-[(5-tert-butyl-2-methoxybenzene)sulfonyl]phenyl}methyl)-1H-pyrrolo[3,2-c]pyridine-2-carboxamide] | 647 nM | 6 nM | – | –
Cc1cc(C)n(-c2cccc(S(=O)(=O)c3ccc(CNC(=O)c4cc5ccncc5s4)cc3)c2)n1 | – | – | 1.5 nM | 3.1 nM
COc1cc(OC)cc(S(=O)(=O)c2ccc(CNC(=O)c3cc4ccncc4o3)cc2)c1 | 2.7 nM | – | 1.7 nM | –
COc1cccc(NS(=O)(=O)c2ccc(CNC(=O)c3cc4cnccc4[nH]3)cc2)c1C [N-({4-[(3-methoxy-2-methylphenyl)sulfamoyl]phenyl}methyl)-1H-pyrrolo[3,2-c]pyridine-2-carboxamide] | 30 nM | 6 nM | – | –
CC(C)COc1cccc(S(=O)(=O)c2ccc(CNC(=O)c3cnc4nccn4c3)cc2)c1 | – | – | 13.2 nM | 3.9 nM
Cn1ncc2cc(S(=O)(=O)c3ccc(CNC(=O)c4cc5cnccc5[nH]4)cc3)ccc21 [N-{[4-(1-methyl-1H-indazole-5-sulfonyl)phenyl]methyl}-1H-pyrrolo[3,2-c]pyridine-2-carboxamide] | – | – | 3.1 nM | 5.7 nM
O=C(NCc1ccc(S(=O)(=O)c2cccc(C(F)(F)F)c2)cc1)c1cc2ccncc2o1 | – | – | 4.8 nM | 5.4 nM
O=C(NCc1ccc(S(=O)(=O)N2CCCCC2)cc1)c1cc2cnccc2o1 [N-{[4-(piperidine-1-sulfonyl)phenyl]methyl}furo[3,2-c]pyridine-2-carboxamide] | 17 nM | 286 nM | – | –
O=C(NCc1ccc(S(=O)(=O)c2ccc(C(F)(F)F)cc2F)cc1)c1cc2cnccc2[nH]1 [N-[(4-{[2-fluoro-4-(trifluoromethyl)benzene]sulfonyl}phenyl)methyl]-1H-pyrrolo[3,2-c]pyridine-2-carboxamide] | – | – | 28.1 nM | 80.2 nM
O=C(NCc1ccc(S(=O)(=O)c2ccc(-n3cccn3)cc2F)cc1)c1ccc2nccn2c1 [N-[(4-{[2-fluoro-4-(1H-pyrazol-1-yl)benzene]sulfonyl}phenyl)methyl]imidazo[1,2-a]pyridine-6-carboxamide] | – | – | 12.8 nM | 8.44 nM
O=C(NCc1ccc(S(=O)(=O)c2cncc(F)c2)cc1)c1ccc2nccn2c1 [N-{[4-(5-fluoropyridine-3-sulfonyl)phenyl]methyl}imidazo[1,2-a]pyridine-6-carboxamide] | – | – | 13.7 nM | 27.8 nM
Cc1cc(C(F)(F)F)ccc1S(=O)(=O)c1ccc(CNC(=O)c2ccc3nccn3c2)cc1 | – | – | 16.6 nM | 24.7 nM
